Source: patent US11761966B2, “Nourin gene-based RNA molecular network: novel early diagnostic and prognostic biomarkers for coronary artery disease, unstable angina, STEMI/NSTEMI and heart failure” (Nour Heart, Inc., priority 2018, dated 2023)
“Also recorded” adds a separate entry of the source.

How the values were obtained:
[1] = system: intact AMI dog model of LAD occlusion; assay: Intact AMI dog model of LAD occlusion for 1 hour followed by reperfusion for 2 hours; assay type: in vivo; conditions: for myocardial cell injury (histology): vs control (saline) group
Experimental: During ischemia, myocardial ATP levels decrease by 65% at 15 minutes and by 90% at 40 minutes, thus contractile performance in vivo decreases precipitously and ceases when only 20% of ATP and 75% of creatine phosphate are depleted. […] ATP synthesis continued during ischemia and its depletion was delayed resulting in over 85% preservation of pre-ischemic ATP level with a loss of only 15%, and 97% preservation of the CrP (loss of 3%) during ischemia. This significant preservation is crucial since ATP depletion of more than 20% ceases contractility. Control saline-treated hearts maintained only 66% of the ATP, with a loss of 34%, resulting in loss of reperfusion cardiac contractility. […] On the other hand, contractile function of control saline dogs was ceased completely after LAD occlusion and never recovered during reperfusion.

[2] = Crossing of the blood-brain barrier
Yorkshire pigs = assay: Aortic cross-clamping for 30 minutes in Yorkshire pigs (paraplegia); assay type: in vivo, pig; conditions: 30 minutes aortic cross-clamping, 4 days survival
Text: The relationship between hypoxia and AD could open the avenue for effective preservation and pharmacological treatments of this neurodegenerative disease by using new therapeutic drugs like the novel bioenergetic drug, CCrP. CCrP provides protection of heart muscle against ischemic injury in CAD, UA, AMI, HF and cardiac surgical patients and thus save ischemic muscles from progressing to necrosis and heart failure, and will be protective against ischemic injury in stroke and AD. […] Since paraplegia following surgery of the descending thoracic aorta is a serious complication in adult and pediatric surgery, we tested the neuroprotective effect of Cyclocreatine in Yorkshire pigs which underwent 30 minutes of aortic cross-clamping then left to survive for 4 days. […] As indicated in Example 17, similar to heart tissue (Nourin-1), Nourin protein was quickly released within 5 minutes by brain (Nourin-2) and spinal cord (Nourin-3) in response to ischemia. Because of the great similarities between heart and brain and that they are both require high demand of ATP, CCrP will be as effective in preventing ischemic injury and restoring neurologic function in stroke and AD, similar to HF.

[3] = system: non-heartbeating dog model of heart transplantation; assay: Non-heartbeating dog model of heart transplantation (warm ischemic arrest, ex vivo perfusion); assay type: in vivo
Experimental: Dog hearts underwent 1 hour of global warm ischemic arrest then hearts were explanted and perfused ex vivo for an additional 4 hours with a cold lactated ringers solution containing Cyclocreatine, while control hearts received cold lactated ringers solution alone. […] Similarly, the myocardium of the CCr dog maintained a tissue pH of 7.04±0.1 during the warm ischemia period of 1 hour and throughout the ex vivo perfusion interval, which was close to its baseline level of 7.11. On the other hand, tissue pH in control hearts fell to a nadir of 6.00±0.25 during the induction of warm ischemia and never returned back to baseline levels during the ex vivo preservation period.

[4] = system: intact canine model of cold cardioplegic arrest; assay: Intact canine model of cold cardioplegic arrest and aortic cross-clamping (bypass); assay type: in vivo, dog
Experimental: Dogs were injected intravenously with saline or CCr (500 mg/kg) for 1 hour before initiating the experiment.
Atrial fibrillation (AF) induces cardiac structural remodeling and there is a need to develop more mechanism-directed AF therapies that use the mitochondria as a novel potential therapeutic target in AF.

NC1=NCCN1CC(=O)O [Cyclocreatine]
preservation of pre-ischemic ATP level ([1]; CCr 60 minutes before LAD occlusion for 1 hour, saline 66%): over 85% | loss of ATP ([1]; CCr 60 minutes before LAD occlusion, saline 34%): 15% | neutrophil accumulation into the myocardium ([1]; at the end of 2 hours reperfusion): reduces neutrophil accumulation | loss of CrP ([1]; during ischemia): 3% | preservation of the CrP ([1]; during ischemia): 97% | circulating Nourin protein in plasma ([1]; during the 2 hour reperfusion): inhibiting the levels of circulating Nourin protein | contractile function restored ([1]; immediately at reperfusion and for an additional 2 hours): over 80% | myocardial cell injury (histology) [1]: significantly reduced myocardial cell injury | myocardial cell injury (histology) ([1]; listed as CCr): markedly less myocardial cell injury | crossing of the blood-brain barrier [2]: crosses the blood-brain barrier; also recorded: crosses the blood brain barrier | ability to stand and walk (Yorkshire pigs): Majority of Cyclocreatine-treated animals were able to stand and walk | myocardial tissue pH ([3]; 1 hour warm ischemia and ex vivo perfusion, baseline 7.11, control nadir 6.00±0.25): 7.04±0.1 | time to stop beating and develop asystole ([3]; after exsanguination, control average 2 minutes): 9 min | intracellular edema (diffusion weighted MRI) ([3]; compared to control): Reduced intracellular edema | myocardial tissue lactic acidosis (spectroscopic MRI) ([3]; compared to control): Reduced myocardial tissue lactic acidosis | cell injury marker Malondialdehyde ([3]; compared to controls): Reduced level | myocardial ATP content ([3]; compared to controls): Three-fold increase | reduction of Caspase enzyme activities, of baseline ([3]; control dogs 3.86-fold increase over baseline): 25% | post-bypass cardiac output, of the baseline function ([4]; CCr 500 mg/kg IV, throughout 4 hours of reperfusion, control 60%): over 90% | resumption of contractility during reperfusion ([4]; all control dogs required defibrillation, listed as CCr): without arrhythmias; also recorded: without the need for defibrillation
